Experimental data published in paper PMC10046369, “Low-Affinity/High-Selectivity Dopamine Transport Inhibition Sufficient to Rescue Cognitive Functions in the Aging Rat” (Biomolecules, 2023).

Key:
Assay in all cases: biochemical
Parameters in all cases: KINOMEscan competition binding panel, per cent of control
Conditions in all cases: read-out: %Ctrl @ 2800nM
IKK-epsilon = molecular target: T1, IKK-epsilon (Homo sapiens, UniProt Q14164)
T1 construct: gene IKBKE
Method in brief: (§1)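 Values are expressed as percent of control, calculated as ((test − positive control)/(negative control − positive control)) × 100, so lower numbers mean stronger hits. Binding was measured by KINOMEscan competition assay in a 450-kinase human panel including disease mutants, using the contractor's validated protocol.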

ACVR1B = ACVR1B (Homo sapiens, UniProt P36896)
Method in brief: as §1

GSK3B = GSK3B (Homo sapiens, UniProt P49841)
Method in brief: as §1

ROCK2 = ROCK2 (Homo sapiens, UniProt O75116)
Method in brief: as §1

RET = RET (Homo sapiens, UniProt P07949)
Method in brief: as §1

CDKL1 = CDKL1 (Homo sapiens, UniProt Q00532)
Sequence of CDKL1 (Q00532 whole entry): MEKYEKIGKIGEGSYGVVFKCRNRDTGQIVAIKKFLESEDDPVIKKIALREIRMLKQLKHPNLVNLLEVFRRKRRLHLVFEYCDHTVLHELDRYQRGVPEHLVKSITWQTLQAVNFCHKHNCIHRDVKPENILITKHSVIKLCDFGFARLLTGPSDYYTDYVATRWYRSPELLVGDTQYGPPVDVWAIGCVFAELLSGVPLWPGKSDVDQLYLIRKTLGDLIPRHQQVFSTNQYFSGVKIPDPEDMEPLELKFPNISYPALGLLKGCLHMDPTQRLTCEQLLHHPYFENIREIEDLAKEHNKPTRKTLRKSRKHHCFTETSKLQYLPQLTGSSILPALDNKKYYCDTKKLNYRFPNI
Method in brief: as §1

FGFR3(G697C) = FGFR3(G697C) (Homo sapiens, UniProt P22607, G697C)
Method in brief: as §1

PKN1 = PKN1 (Homo sapiens, UniProt Q16512)
Method in brief: as §1

SgK110 = molecular target: T2, SgK110 (Homo sapiens, UniProt P0C264)
T2 construct: gene SBK3
Method in brief: as §1

MYO3A = MYO3A (Homo sapiens, UniProt Q8NEV4)
Method in brief: as §1

MEK1 = molecular target: T3, MEK1 (Homo sapiens, UniProt Q02750)
T3 construct: gene MAP2K1
Method in brief: as §1

EGFR(L858R) = EGFR(L858R) (Homo sapiens, UniProt P00533, L858R)
Method in brief: as §1

FLT4 = FLT4 (Homo sapiens, UniProt P35916)
Sequence of FLT4 (P35916 whole entry): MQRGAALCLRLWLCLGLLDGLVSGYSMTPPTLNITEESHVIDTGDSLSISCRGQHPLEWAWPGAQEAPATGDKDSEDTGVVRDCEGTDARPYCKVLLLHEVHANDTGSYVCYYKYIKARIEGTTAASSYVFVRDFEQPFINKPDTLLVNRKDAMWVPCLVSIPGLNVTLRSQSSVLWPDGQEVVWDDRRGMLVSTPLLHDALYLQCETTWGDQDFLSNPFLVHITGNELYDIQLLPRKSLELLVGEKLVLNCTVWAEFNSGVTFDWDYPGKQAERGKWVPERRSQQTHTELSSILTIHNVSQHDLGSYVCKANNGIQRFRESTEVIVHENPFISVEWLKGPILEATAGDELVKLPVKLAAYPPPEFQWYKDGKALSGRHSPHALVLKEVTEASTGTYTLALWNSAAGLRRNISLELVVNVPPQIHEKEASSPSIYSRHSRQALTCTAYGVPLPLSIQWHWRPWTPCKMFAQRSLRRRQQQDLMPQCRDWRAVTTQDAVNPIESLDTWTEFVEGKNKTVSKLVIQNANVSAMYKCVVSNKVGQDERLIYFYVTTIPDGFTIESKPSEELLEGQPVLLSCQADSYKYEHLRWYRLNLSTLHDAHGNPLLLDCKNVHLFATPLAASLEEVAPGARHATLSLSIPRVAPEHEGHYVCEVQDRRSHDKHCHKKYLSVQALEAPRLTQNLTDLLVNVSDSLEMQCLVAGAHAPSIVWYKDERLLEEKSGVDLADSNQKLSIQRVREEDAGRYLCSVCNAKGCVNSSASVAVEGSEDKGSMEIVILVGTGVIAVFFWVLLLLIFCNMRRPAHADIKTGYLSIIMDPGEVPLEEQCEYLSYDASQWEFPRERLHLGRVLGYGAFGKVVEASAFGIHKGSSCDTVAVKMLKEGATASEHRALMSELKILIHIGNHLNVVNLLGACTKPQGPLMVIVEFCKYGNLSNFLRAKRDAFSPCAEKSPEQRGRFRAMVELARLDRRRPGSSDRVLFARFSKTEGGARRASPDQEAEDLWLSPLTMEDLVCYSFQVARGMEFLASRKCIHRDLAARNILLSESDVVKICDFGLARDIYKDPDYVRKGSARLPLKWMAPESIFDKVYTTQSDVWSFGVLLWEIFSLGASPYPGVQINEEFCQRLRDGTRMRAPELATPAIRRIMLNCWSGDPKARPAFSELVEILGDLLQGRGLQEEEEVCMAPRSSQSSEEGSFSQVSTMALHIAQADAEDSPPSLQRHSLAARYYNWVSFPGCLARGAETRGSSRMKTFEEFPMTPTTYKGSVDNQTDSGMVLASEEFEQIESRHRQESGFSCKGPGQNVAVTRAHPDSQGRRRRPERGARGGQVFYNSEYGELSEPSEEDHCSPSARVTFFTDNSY
Method in brief: as §1

MAST1 = MAST1 (Homo sapiens, UniProt Q9Y2H9)
Method in brief: as §1

PIK3CG = PIK3CG (Homo sapiens, UniProt P48736)
Method in brief: as §1

KIT-autoinhibited = KIT-autoinhibited (Homo sapiens, UniProt P10721)
Method in brief: as §1

PHKG2 = PHKG2 (Homo sapiens, UniProt P15735)
Sequence of PHKG2 (P15735 whole entry): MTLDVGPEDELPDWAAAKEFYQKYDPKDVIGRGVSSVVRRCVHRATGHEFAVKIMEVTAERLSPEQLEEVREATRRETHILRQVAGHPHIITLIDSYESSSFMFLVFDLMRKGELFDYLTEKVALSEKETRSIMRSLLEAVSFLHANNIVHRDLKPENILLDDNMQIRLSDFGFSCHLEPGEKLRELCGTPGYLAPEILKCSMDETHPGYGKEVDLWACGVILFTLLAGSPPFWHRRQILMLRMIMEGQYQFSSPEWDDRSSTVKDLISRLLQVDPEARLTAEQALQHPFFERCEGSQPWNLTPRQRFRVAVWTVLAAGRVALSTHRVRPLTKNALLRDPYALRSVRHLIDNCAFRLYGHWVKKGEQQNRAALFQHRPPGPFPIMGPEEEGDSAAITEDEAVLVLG
Method in brief: as §1

CAMK2B = CAMK2B (Homo sapiens, UniProt Q13554)
Method in brief: as §1

PAK6 = PAK6 (Homo sapiens, UniProt Q9NQU5)
Method in brief: as §1

SGK = molecular target: T4, SGK (Homo sapiens, UniProt O00141)
T4 construct: gene SGK1
T4 sequence (O00141 whole entry): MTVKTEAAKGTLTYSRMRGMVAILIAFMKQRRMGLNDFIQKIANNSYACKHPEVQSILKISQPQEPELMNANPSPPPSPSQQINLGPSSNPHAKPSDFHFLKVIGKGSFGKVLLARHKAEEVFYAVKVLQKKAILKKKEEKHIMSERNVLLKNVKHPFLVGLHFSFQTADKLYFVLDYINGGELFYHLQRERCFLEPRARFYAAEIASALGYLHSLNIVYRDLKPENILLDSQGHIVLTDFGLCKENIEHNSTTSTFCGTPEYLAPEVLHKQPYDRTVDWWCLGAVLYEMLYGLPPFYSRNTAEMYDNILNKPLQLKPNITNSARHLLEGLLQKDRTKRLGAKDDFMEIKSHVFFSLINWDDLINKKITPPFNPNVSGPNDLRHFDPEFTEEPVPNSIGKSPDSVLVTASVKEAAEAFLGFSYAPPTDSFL
Method in brief: as §1

GAK = GAK (Homo sapiens, UniProt O14976)
Sequence of GAK (O14976 whole entry): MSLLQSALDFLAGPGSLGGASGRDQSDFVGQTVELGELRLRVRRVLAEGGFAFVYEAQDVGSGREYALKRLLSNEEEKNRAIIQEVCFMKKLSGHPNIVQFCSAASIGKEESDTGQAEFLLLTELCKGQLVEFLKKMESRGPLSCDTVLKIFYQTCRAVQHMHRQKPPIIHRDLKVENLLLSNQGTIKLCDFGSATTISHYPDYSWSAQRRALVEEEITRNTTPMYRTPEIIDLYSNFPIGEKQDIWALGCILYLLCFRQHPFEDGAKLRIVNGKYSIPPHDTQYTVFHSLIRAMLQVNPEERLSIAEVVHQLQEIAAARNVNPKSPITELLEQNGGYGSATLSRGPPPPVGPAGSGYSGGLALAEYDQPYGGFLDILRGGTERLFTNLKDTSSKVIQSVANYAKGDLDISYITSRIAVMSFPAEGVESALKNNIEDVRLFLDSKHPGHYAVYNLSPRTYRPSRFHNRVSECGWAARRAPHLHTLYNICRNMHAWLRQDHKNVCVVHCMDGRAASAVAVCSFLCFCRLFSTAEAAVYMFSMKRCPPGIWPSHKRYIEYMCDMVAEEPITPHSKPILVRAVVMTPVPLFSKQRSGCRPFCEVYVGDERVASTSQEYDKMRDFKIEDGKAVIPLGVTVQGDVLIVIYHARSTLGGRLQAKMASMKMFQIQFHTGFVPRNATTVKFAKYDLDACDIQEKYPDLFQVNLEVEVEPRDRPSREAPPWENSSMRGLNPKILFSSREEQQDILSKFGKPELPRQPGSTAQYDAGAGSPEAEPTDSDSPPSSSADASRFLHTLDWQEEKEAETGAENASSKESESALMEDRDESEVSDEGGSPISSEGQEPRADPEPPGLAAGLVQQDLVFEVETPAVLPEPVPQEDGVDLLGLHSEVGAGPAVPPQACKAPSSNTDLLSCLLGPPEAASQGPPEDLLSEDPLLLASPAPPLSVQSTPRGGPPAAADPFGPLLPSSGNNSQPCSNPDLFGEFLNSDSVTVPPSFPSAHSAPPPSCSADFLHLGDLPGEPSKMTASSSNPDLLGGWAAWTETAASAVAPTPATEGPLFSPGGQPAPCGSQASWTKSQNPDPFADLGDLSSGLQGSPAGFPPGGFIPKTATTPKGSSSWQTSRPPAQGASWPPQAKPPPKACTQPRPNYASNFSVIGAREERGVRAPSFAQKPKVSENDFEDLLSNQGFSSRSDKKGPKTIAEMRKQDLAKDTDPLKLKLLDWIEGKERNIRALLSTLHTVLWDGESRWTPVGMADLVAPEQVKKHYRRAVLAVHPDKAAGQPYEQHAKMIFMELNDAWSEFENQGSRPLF
Method in brief: as §1

SBK1 = SBK1 (Homo sapiens, UniProt Q52WX2)
Method in brief: as §1

FGFR1 = FGFR1 (Homo sapiens, UniProt P11362)
Method in brief: as §1

ABL2 = ABL2 (Homo sapiens, UniProt P42684)
Sequence of ABL2 (P42684 whole entry): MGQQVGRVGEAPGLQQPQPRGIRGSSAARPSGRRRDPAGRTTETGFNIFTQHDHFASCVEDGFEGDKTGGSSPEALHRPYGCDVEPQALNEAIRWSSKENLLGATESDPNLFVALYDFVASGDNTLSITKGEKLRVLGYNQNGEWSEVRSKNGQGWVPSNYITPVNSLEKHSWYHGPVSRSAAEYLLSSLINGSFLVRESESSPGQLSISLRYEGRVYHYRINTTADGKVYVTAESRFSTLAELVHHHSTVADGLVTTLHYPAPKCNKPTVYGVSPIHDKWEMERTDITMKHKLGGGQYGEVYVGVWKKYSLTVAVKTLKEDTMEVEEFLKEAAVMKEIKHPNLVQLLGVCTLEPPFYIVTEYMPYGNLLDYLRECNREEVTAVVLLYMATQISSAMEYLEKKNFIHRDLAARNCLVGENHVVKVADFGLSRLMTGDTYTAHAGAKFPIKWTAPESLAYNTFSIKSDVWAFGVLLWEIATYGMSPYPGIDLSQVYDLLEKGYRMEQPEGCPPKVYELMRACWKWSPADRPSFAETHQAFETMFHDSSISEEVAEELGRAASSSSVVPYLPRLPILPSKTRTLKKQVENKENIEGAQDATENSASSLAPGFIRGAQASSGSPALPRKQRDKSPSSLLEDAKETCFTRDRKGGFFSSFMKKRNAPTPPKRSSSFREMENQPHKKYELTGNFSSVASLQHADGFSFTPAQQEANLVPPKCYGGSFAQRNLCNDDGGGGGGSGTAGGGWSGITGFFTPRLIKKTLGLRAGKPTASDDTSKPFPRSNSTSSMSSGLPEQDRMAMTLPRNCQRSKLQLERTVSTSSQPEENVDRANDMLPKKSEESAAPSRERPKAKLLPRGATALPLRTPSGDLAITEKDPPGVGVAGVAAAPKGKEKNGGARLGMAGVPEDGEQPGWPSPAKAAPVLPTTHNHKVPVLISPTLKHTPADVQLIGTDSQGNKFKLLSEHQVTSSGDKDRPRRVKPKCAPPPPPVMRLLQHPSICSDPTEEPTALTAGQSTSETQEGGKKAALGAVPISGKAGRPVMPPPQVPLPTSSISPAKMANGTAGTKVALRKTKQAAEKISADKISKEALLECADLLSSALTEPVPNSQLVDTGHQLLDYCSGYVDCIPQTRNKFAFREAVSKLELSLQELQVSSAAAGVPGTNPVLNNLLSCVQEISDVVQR
Method in brief: as §1

SRPK2 = SRPK2 (Homo sapiens, UniProt P78362)
Method in brief: as §1

TNIK = TNIK (Homo sapiens, UniProt Q9UKE5)
Method in brief: as §1

FLT3 = FLT3 (Homo sapiens, UniProt P36888)
Method in brief: as §1

With [O-][S@@+](Cc1cncs1)C(c1ccccc1)c1ccccc1 [S-CE-123, (S)-5-((Benzhydrylsulfinyl)Methyl)Thiazole] the remaining binding at 2.8 µM (IKK-epsilon) was 98%, the remaining binding at 2.8 µM (ACVR1B) was 100% and the remaining binding at 2.8 µM (GSK3B) was 92%. It also gave a remaining binding at 2.8 µM (ROCK2) of 100%, a remaining binding at 2.8 µM (RET) of 96% and a remaining binding at 2.8 µM (CDKL1) of 100%. The remaining binding at 2.8 µM (FGFR3(G697C)) was 96%, the remaining binding at 2.8 µM (PKN1) was 100% and the remaining binding at 2.8 µM (SgK110) was 72%. The remaining binding at 2.8 µM (MYO3A) was 96%, the remaining binding at 2.8 µM (MEK1) was 94% and the remaining binding at 2.8 µM (EGFR(L858R)) was 92%. It also gave a remaining binding at 2.8 µM (FLT4) of 100%, a remaining binding at 2.8 µM (MAST1) of 94% and a remaining binding at 2.8 µM (PIK3CG) of 70%. For the same compound, the remaining binding at 2.8 µM (KIT-autoinhibited) was 86%, the remaining binding at 2.8 µM (PHKG2) was 96% and the remaining binding at 2.8 µM (CAMK2B) was 87%. It also gave a remaining binding at 2.8 µM (PAK6) of 100%, a remaining binding at 2.8 µM (SGK) of 94% and a remaining binding at 2.8 µM (GAK) of 100%. For the same compound, the remaining binding at 2.8 µM (SBK1) was 100%, the remaining binding at 2.8 µM (FGFR1) was 100% and the remaining binding at 2.8 µM (ABL2) was 99%. The remaining binding at 2.8 µM (SRPK2) was 76%, the remaining binding at 2.8 µM (TNIK) was 89% and the remaining binding at 2.8 µM (FLT3) was 96%.
